Test results reported in the supplement of paper PMC4862054.

How the values were obtained:
Details in all cases: incubation time: 72 h
CAL-120 [1] = test: drug sensitivity score (DSS), CellTiter-Glo (DSS (AUC-based score)); higher = stronger drug effect (viability inhibition or cytotoxicity); extreme values may be limits of the assay
In short: (§1)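 The drug sensitivity score was computed from the area under the fitted dose-response curve. Breast cancer cell lines in 20 µl suspension went into 384-well plates holding compound at 5 concentrations (10-fold steps over a 10,000-fold, compound-specific range) for 72 h of incubation. CellTox Green fluorescence (485/520 nm) was read before CellTiter-Glo luminescence, the latter after 10 min at room temperature, and each plate was normalised to 0.1 % DMSO and a positive kill control.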

CAL-148 [2] = test: as above
In short: as §1

CAL-51 [3] = test: as above
In short: as §1

HCC1937 [4] = test: as above
In short: as §1

HDQ-P1 [5] = test: as above
In short: as §1

MCF-10A [6] = test: as above
In short: as §1

MDA-MB-453 [7] = test: as above
In short: as §1

MDA-MB-468 [8] = test: as above
In short: as §1

MFM-223 [9] = test: as above
In short: as §1

BT-474 = test: drug sensitivity score (DSS), CellTox Green (DSS (AUC-based score)); higher = stronger drug effect (viability inhibition or cytotoxicity); extreme values may be limits of the assay
In short: as §1

BT-549 = test: as above
In short: as §1

CAL-120 [10] = test: as above
In short: as §1

CAL-148 [11] = test: as above
In short: as §1

CAL-51 [12] = test: as above
In short: as §1

CAL-85-1 = test: as above
In short: as §1

DU-4475 = test: as above
In short: as §1

HCC1143 = test: as above
In short: as §1

HCC1599 = test: as above
In short: as §1

HCC1937 [13] = test: as above
In short: as §1

HDQ-P1 [14] = test: as above
In short: as §1

Hs578T = test: as above
In short: as §1

MCF-10A [15] = test: as above
In short: as §1

MDA-MB-231 = test: as above
In short: as §1

MDA-MB-436 = test: as above
In short: as §1

MDA-MB-453 [16] = test: as above
In short: as §1

MDA-MB-468 [17] = test: as above
In short: as §1

MFM-223 [18] = test: as above
In short: as §1

Compound	drug sensitivity score (CAL-120 [1])	drug sensitivity score (CAL-148 [2])	drug sensitivity score (CAL-51 [3])	drug sensitivity score (HCC1937 [4])	drug sensitivity score (HDQ-P1 [5])	drug sensitivity score (MCF-10A [6])	drug sensitivity score (MDA-MB-453 [7])	drug sensitivity score (MDA-MB-468 [8])	drug sensitivity score (MFM-223 [9])	drug sensitivity score (BT-474)	drug sensitivity score (BT-549)	drug sensitivity score (CAL-120 [10])	drug sensitivity score (CAL-148 [11])	drug sensitivity score (CAL-51 [12])	drug sensitivity score (CAL-85-1)	drug sensitivity score (DU-4475)	drug sensitivity score (HCC1143)	drug sensitivity score (HCC1599)	drug sensitivity score (HCC1937 [13])	drug sensitivity score (HDQ-P1 [14])	drug sensitivity score (Hs578T)	drug sensitivity score (MCF-10A [15])	drug sensitivity score (MDA-MB-231)	drug sensitivity score (MDA-MB-436)	drug sensitivity score (MDA-MB-453 [16])	drug sensitivity score (MDA-MB-468 [17])	drug sensitivity score (MFM-223 [18])
Cc1cc(Nc2cc(CN3CCOCC3)c3nc(C)c(Cc4ccc(Cl)cc4F)n3n2)n[nH]1 [Gandotinib]	3.77	0	9.68	1.28	5.01	3.4	0	9.64	5.57	0	0	0	0	7.6	3.97	0	0	0	0	0	7.9	0	0	0.139	0	3.86	0
CCOC(=O)CCNc1cc(N2CCc3ccccc3CC2)nc(-c2ccccn2)n1 [GSK-J4]	10.7	17.3	21.5	12	10.5	12.1	17	19.9	12.5	19	7.69	8.01	10.9	11.4	16.5	2.65	18.6	2.51	7.05	11.6	20.6	8.52	11.1	7.09	7.34	12.3	8.73
N#Cc1ccc(COC[C@H]2O[C@@H](n3c(NCc4ccc(Cl)c(Cl)c4)nc4c(N)ncnc43)[C@H](O)[C@@H]2O)cc1	0	0	0	3.1	1.31	1.78	0	2.09	0.407	0	0	0	0	0	2.89	0	0	0	0	0	0	0	0	0	0	0	3.38
Nc1cc(C(F)(F)F)c(-c2cc(N3CCOCC3)nc(N3CCOCC3)n2)cn1 [Buparlisib]	2.39	0	7.02	3.29	6.14	9.62	0	6.3	10	3.4	1.91	0	0	6.04	0	0	0	0	0	0	2.89	0.18	7.38	0	0	0	0
O=C(Nc1ccncc1)C(=O)c1cn(Cc2ccc(Cl)cc2)c2ccccc12 [Indibulin]	6.2	0	19.4	3.81	3.33	0	6.57	12.2	7.28	1.31	0	0.995	0	12.5	11.7	0	0	0	0	0	1.65	0	8.72	0	0	3.09	4.4
COCC[n+]1c2c(n(Cc3cnccn3)c1C)C(=O)c1ccccc1C2=O [YM155]	42.3	33	33.8	35.3	33.5	29.5	29.6	41.9	28.4	33.6	20.2	39	29.4	28.2	42.2	3.34	23.5	11.8	29.5	30.2	5.6	34.7	30.1	27.2	12.2	37.3	11.4
O=C(/C=C/c1cccc(S(=O)(=O)Nc2ccccc2)c1)NO [Belinostat]	13.1	16.1	18.6	7.92	8.05	10.8	20.4	14.7	13.9	8.01	0	9.87	8.43	13	11.5	3.83	0	0	0	0	6.63	10.5	17.8	0	0.0261	2.85	4.75
COc1cc2c(NC3CCN(C(C)C)CC3)nc(N3CCC(F)(F)CC3)nc2cc1OCCCN1CCCC1 [UNC0642]	0	3.63	0	1.97	0.93	3.66	5.58	7.75	3.31	6.46	0	4.13	2.77	0	6.85	0	0	0	1.95	0	0	2.29	7.71	11	1.18	5.22	0
Cc1[nH]c2ccccc2c1CCNCc1ccc(/C=C/C(=O)NO)cc1 [Panobinostat]	12.9	20	17.2	9.22	8.41	11.1	23.5	15.2	13.2	14.6	0	13.8	20.9	18.2	17.3	6.99	6.53	4.47	14.2	3.86	18.5	1.6	19.9	0	4.41	10	6.53
COc1cc(O)c2c(c1)/C=C/C[C@H](O)[C@H](O)C(=O)/C=C\C[C@H](C)OC2=O [(5Z)-7-Oxozeaenol]	4.12	7.16	4.7	5.41	7.51	9.62	1.38	9.6	5.76	1.65	0	0	16.9	1.06	18.5	4.86	0	0	18.1	0	8.72	0	9.09	0	0	0	8.77
CO[C@H]1C[C@@H]2CC[C@@H](C)[C@@](O)(O2)C(=O)C(=O)N2CCCC[C@H]2C(=O)O[C@H]([C@H](C)C[C@@H]2CC[C@@H](OP(C)(C)=O)[C@H](OC)C2)CC(=O)[C@H](C)/C=C(\C)[C@@H](O)[C@@H](OC)C(=O)[C@H](C)C[C@H](C)/C=C/C=C/C=C/1C [Ridaforolimus]	8.4	7.53	8.46	7.76	2.99	0	8.14	12.7	6.61	0	0	0	0	0	0	0	0	0	0	12.6	0	0	0.968	4.09	0	0	0
CNC(=O)c1cccc(-c2ccc3c(N4CCOC[C@@H]4C)nc(N4CCOC[C@@H]4C)nc3n2)c1 [AZD2014]	14.9	13.8	17.4	9.48	14.8	10.3	13.5	11.4	15.7	0	0	0	11	0	0	0	0	0	0	0	0	0	0	0	0	0	3.63
Oc1ccc2c(c1)CC[C@H](c1ccccc1)[C@@H]2c1ccc(OCCN2CCCC2)cc1 [Lasofoxifene]	0	0	0	0	0	0	0	0	0	0	0	0	0	0	3.43	0	0	0	0	0	3.26	0	0	0	0	0	0
